The molecules below were run against T1, BRD9 (Homo sapiens, UniProt Q9H8M2) (assay: BRD9 AlphaLisa Binding Assay). Conditions: not given.
T1 construct: 134-239 was cloned, expressed, and purified to homogeneity; Flag; made in house
T1 sequence (Q9H8M2 134-239 limits assumed): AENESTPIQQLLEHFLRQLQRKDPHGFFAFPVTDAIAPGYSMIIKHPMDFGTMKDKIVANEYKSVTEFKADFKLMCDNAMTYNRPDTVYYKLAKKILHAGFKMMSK
Protocol: IC50 Measurements for Inhibitors Using BRD9 AlphaLisa Binding Assay His/Flag epitope tagged BRD9134-239 was cloned, expressed, and purified to homogeneity. […] After 20 minutes incubation at room temperature AlphaLisa Streptavidin Acceptor Beads (Perkin-A[…]) and AlphaLisa Nickel donor beads (Perkin AS 10 ID) were added to a final concentration of 15 ug/mL each.
For CN(C)CCNC(=O)c1cn(C)c(=O)c2[nH]ccc12 [Example 1, N-(2-dimethylaminoethyl)-6-methyl-7-oxo-1H-pyrrolo[2,3-c]pyridine-4-carboxamide], the IC50 was 3000 nM. In the case of CN1CCC(CNC(=O)c2cn(C)c(=O)c3[nH]ccc23)CC1 [Example 3, 6-methyl-N-[(1-methyl-4-piperidyl)methyl]-7-oxo-1H-pyrrolo[2,3-c]pyridine-4-carboxamide], the IC50 is reported as 3500 nM. For Cn1cc(C(=O)NCCN2CCCCC2)c2cc[nH]c2c1=O [Example 5, 6-methyl-7-oxo-N-[2-(1-piperidyl)ethyl]-1H-pyrrolo[2,3-c]pyridine-4-carboxamide], the IC50 was 790 nM. Molecule CN1CCC(NC(=O)c2cn(C)c(=O)c3[nH]ccc23)C1 (stereo not shown) [Example 6, 6-methyl-N-(1-methylpyrrolidin-3-yl)-7-oxo-1H-pyrrolo[2,3-c]pyridine-4-carboxamide] has an IC50 of 1500 nM. CN1CCCC1CCNC(=O)c1cn(C)c(=O)c2[nH]ccc12 (stereo not shown) [Example 7, 6-methyl-N-[2-(1-methylpyrrolidin-2-yl)ethyl]-7-oxo-1H-pyrrolo[2,3-c]pyridine-4-carboxamide] gave an IC50 of 990 nM. In the case of CC=CCn1cc(C(=O)NCCCN2CCN(C)CC2)c2cc[nH]c2c1=O [Example 9, 6-but-2-enyl-N-[3-(4-methylpiperazin-1-yl)propyl]-7-oxo-1H-pyrrolo[2,3-c]pyridine-4-carboxamide], the IC50 is reported as 920 nM. CC=CCn1cc(C(=O)NCC2CCN(C)CC2)c2cc[nH]c2c1=O [Example 11, 6-but-2-enyl-N-[(1-methyl-4-piperidyl)methyl]-7-oxo-1H-pyrrolo[2,3-c]pyridine-4-carboxamide] gave an IC50 of 5400 nM. Work on CC=CCn1cc(C(=O)NCCN2CCN(C)CC2)c2cc[nH]c2c1=O [Example 12, 6-but-2-enyl-N-[2-(4-methylpiperazin-1-yl)ethyl]-7-oxo-1H-pyrrolo[2,3-c]pyridine-4-carboxamide] yielded an IC50 of 840 nM. Molecule CC=CCn1cc(C(=O)NC2(C)CCCCC2)c2cc[nH]c2c1=O [Example 18, 6-but-2-enyl-N-(1-methylcyclohexyl)-7-oxo-1H-pyrrolo[2,3-c]pyridine-4-carboxamide] has an IC50 of 2100 nM. In the case of CC=CCn1cc(C(=O)NCCC2CCN(C(=O)OCc3ccccc3)C2)c2cc[nH]c2c1=O (stereo not shown) [Example 19, benzyl 3-[2-[(6-but-2-enyl-7-oxo-1H-pyrrolo[2,3-c]pyridine-4-carbonyl)amino]ethyl]pyrrolidine-1-carboxylate], the IC50 is reported as 75 nM. For CN(C(=O)c1cn(C)c(=O)c2[nH]ccc12)C1CCN(Cc2ccccc2)C1 (stereo not shown) [Example 22, N-(1-benzylpyrrolidin-3-yl)-N,6-dimethyl-7-oxo-1H-pyrrolo[2,3-c]pyridine-4-carboxamide], the IC50 was 7300 nM. For CC1CC(C)CN(CCNC(=O)c2cn(C)c(=O)c3[nH]ccc23)C1 (stereo not shown) [Example 33, N-[2-(3.5-dimethyl-1-piperidyl)ethyl]-6-methyl-7-oxo-1H-pyrrolo[2,3-c]pyridine-4-carboxamide], the IC50 was 5400 nM. For CN1CCN(CCCNC(=O)c2cn(C)c(=O)c3[nH]ccc23)CC1 [Example 34, 6-methyl-N-[3-(4-methylpiperazin-1-yl)propyl]-7-oxo-1H-pyrrolo[2,3-c]pyridine-4-carboxamide], the IC50 was 2200 nM. Cn1cc(C(=O)NC(C)(C)CN2CCOCC2)c2cc[nH]c2c1=O [Example 35, N-(1,1-dimethyl-2-morpholino-ethyl)-6-methyl-7-oxo-1H-pyrrolo[2,3-c]pyridine-4-carboxamide] was tested, and the IC50 was 11000 nM. CN1CCN(C(=O)c2cn(C)c(=O)c3[nH]ccc23)CC1 [Example 38, 6-methyl-4-(4-methylpiperazine-1-carbonyl)-1H-pyrrolo[2,3-c]pyridin-7-one] was tested, and the IC50 was 8000 nM. Work on CC1CCCN(CCNC(=O)c2cn(C)c(=O)c3[nH]ccc23)C1 (stereo not shown) [Example 45, 6-methyl-N-[2-(3-methyl-1-piperidyl)ethyl]-7-oxo-1H-pyrrolo[2,3-c]pyridine-4-carboxamide] yielded an IC50 of 6100 nM. Cn1cc(C(=O)N2CCCC2c2ccccc2)c2cc[nH]c2c1=O (stereo not shown) [Example 85] gave an IC50 of 570 nM. Cn1cc(C(=O)NCC2CCCCC2)c2cc[nH]c2c1=O [Example 86] gave an IC50 of 160 nM. With CN(Cc1ccccc1)C(=O)c1cn(C)c(=O)c2[nH]ccc12 [Example 87] the IC50 was 1000 nM. With Cn1cc(C(=O)N2CCNc3ccccc3C2)c2cc[nH]c2c1=O [Example 88] the IC50 was 1500 nM. For Cn1cc(C(=O)N2CCC(c3ccccc3)C2)c2cc[nH]c2c1=O (stereo not shown) [Example 89], the IC50 was 4100 nM. Cn1cc(C(=O)N[C@H](C(N)=O)c2ccccc2)c2cc[nH]c2c1=O [Example 90] gave an IC50 of 300 nM. Cn1cc(C(=O)NC(c2ccccc2)c2ccccc2)c2cc[nH]c2c1=O [Example 91] gave an IC50 of 200 nM. Molecule Cn1cc(C(=O)N[C@@H](C(N)=O)c2ccccc2)c2cc[nH]c2c1=O [Example 97] has an IC50 of 490 nM. In the case of CC(C)[C@H](NC(=O)c1cn(C)c(=O)c2[nH]ccc12)C(N)=O [Example 98], the IC50 is reported as 550 nM. Cn1cc(C(=O)NCC2CCOC2)c2cc[nH]c2c1=O (stereo not shown) [Example 102] was tested, and the IC50 was 860 nM. Cn1cc(C(=O)NCC2CCCCCC2)c2cc[nH]c2c1=O [Example 103] was tested, and the IC50 was 490 nM. Cn1cc(C(=O)NC2CCOC2)c2cc[nH]c2c1=O (stereo not shown) [Example 104] was tested, and the IC50 was 980 nM. Work on CC(NC(=O)c1cn(C)c(=O)c2[nH]ccc12)C1CC2CCC1C2 (stereo not shown) [Example 106] yielded an IC50 of 240 nM. Molecule Cn1cc(C(=O)N[C@H](c2ccccc2)[C@@H](O)c2ccccc2)c2cc[nH]c2c1=O [Example 107] has an IC50 of 3400 nM. Cn1cc(C(=O)NCC2COc3ccccc3C2)c2cc[nH]c2c1=O (stereo not shown) [Example 108] showed an IC50 of 200 nM. Work on Cn1cc(C(=O)NC2CCN(C(=O)OC(C)(C)C)C2)c2cc[nH]c2c1=O (stereo not shown) [Example 109] yielded an IC50 of 270 nM. Cn1cc(C(=O)NCC2Cc3ccccc3O2)c2cc[nH]c2c1=O (stereo not shown) [Example 110] showed an IC50 of 850 nM. In the case of Cn1cc(C(=O)NCC2COc3ccccc3O2)c2cc[nH]c2c1=O (stereo not shown) [Example 111], the IC50 is reported as 240 nM. For CC(NC(=O)c1cn(C)c(=O)c2[nH]ccc12)C1CC1 (stereo not shown) [Example 112], the IC50 was 460 nM. Cn1cc(C(=O)NCc2cccc3ccccc23)c2cc[nH]c2c1=O [Example 114] gave an IC50 of 73 nM. CC(NC(=O)c1cn(C)c(=O)c2[nH]ccc12)c1ccncc1 (stereo not shown) [Example 115] showed an IC50 of 640 nM. CC(NC(=O)c1cn(C)c(=O)c2[nH]ccc12)c1ccccc1Cl (stereo not shown) [Example 118] was tested, and the IC50 was 240 nM. Molecule CC(NC(=O)c1cn(C)c(=O)c2[nH]ccc12)c1ccc2c(c1)OCCO2 (stereo not shown) [Example 120] has an IC50 of 440 nM. Cn1cc(C(=O)NC2COCc3ccccc32)c2cc[nH]c2c1=O (stereo not shown) [Example 121] gave an IC50 of 100 nM. With Cc1cc(CC(C)NC(=O)c2cn(C)c(=O)c3[nH]ccc23)on1 (stereo not shown) [Example 122] the IC50 was 2200 nM. With Cn1cc(C(=O)NC2COCC2c2ccc(F)cc2)c2cc[nH]c2c1=O (stereo not shown) [Example 124] the IC50 was 2900 nM. Cn1cc(C(=O)NC2CCCc3ccccc32)c2cc[nH]c2c1=O (stereo not shown) [Example 125] was tested, and the IC50 was 130 nM. With CC(NC(=O)c1cn(C)c(=O)c2[nH]ccc12)c1ccc(F)cc1 (stereo not shown) [Example 129] the IC50 was 220 nM. For Cn1cc(C(=O)NC(C)(C)c2ccccc2)c2cc[nH]c2c1=O [Example 131], the IC50 was 1600 nM. In the case of Cn1cc(C(=O)NCC2CN(C(=O)OC(C)(C)C)CCO2)c2cc[nH]c2c1=O (stereo not shown) [Example 134], the IC50 is reported as 280 nM. Cn1cc(C(=O)NCC2CCCN2C(=O)OC(C)(C)C)c2cc[nH]c2c1=O (stereo not shown) [Example 136, tert-butyl 2-[[(6-methyl-7-oxo-1H-pyrrolo[2,3-c]pyridine-4-carbonyl)amino]methyl]pyrrolidine-1-carboxylate] gave an IC50 of 400 nM. For Cn1cc(C(=O)NC2CCCN(C(=O)OC(C)(C)C)C2)c2cc[nH]c2c1=O (stereo not shown) [Example 138], the IC50 was 310 nM. In the case of CN(C(=O)c1cn(C)c(=O)c2[nH]ccc12)C1CCN(c2nccc(C#N)n2)CC1 [Example 146, N-[1-(4-cyanopyrimidin-2-yl)-4-piperidyl]-N,6-dimethyl-7-oxo-1H-pyrrolo[2,3-c]pyridine-4-carboxamide], the IC50 is reported as 1600 nM. In the case of C=CCn1cc(C(=O)N(C)C2CCN(c3nccc(C(F)(F)F)n3)CC2)c2cc[nH]c2c1=O [Example 159, 6-allyl-N-methyl-7-oxo-N-[1-[4-(trioromethyl)pyrimidin-2-yl]-4-piperidyl]-1H-pyrrolo[2,3-c]pyridine-4-carboxamide], the IC50 is reported as 4300 nM. C=CCn1cc(C(=O)N(C)C2CCN(c3ccncn3)CC2)c2cc[nH]c2c1=O [Example 161, 6-allyl-N-methyl-7-oxo-N-(1-pyrimidin-4-yl-4-piperidyl)-1H-pyrrolo[2,3-c]pyridine-4-carboxamide] showed an IC50 of 2900 nM. CC(C)N1CCC(CN(C)C(=O)c2cn(C)c(=O)c3[nH]ccc23)CC1 [Example 190] showed an IC50 of 15000 nM.

The molecules below were run against T2, TAF1-BD2 (Homo sapiens, UniProt P21675) (assay: TAF1-BD2 TR-FRET Binding Assay). Conditions: Assay: TAF-1.
T2 sequence (P21675 1525-1656): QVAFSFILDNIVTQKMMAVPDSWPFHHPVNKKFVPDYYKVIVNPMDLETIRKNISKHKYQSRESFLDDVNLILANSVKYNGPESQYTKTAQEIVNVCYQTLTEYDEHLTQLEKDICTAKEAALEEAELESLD
Protocol: Specifically, in a 384 well ProxiPlate TAF1-BD2 (6 nM final) was combined with biotin-ligand (50 nM final) in 50 mM HEPES (pH 7.5), 50 mM NaCl, 1 mM TCEP, 0.01% (w/v) BSA, and 0.008% (w/v) Brij-35 either in the presence of DMSO (final 0.2% DMSO) or compound dilution series in DMSO. After 10 minutes incubation at room temperature, a mixture Eu-W1024 Anti-6×His antibody (Perkin Elmer AD0110) and SureLight™ Allophycocyanin-Streptavidin (APC-SA, Perkin Elmer CR130-100) were added to a final concentrations of 0.2 nMolar antibody and 25 nMolar APC-SA, respectively. After twenty minutes of equilibration, the plates were read on an Envision instrument and IC50s calculated using a four parameter non-linear curve fit.
For CN(CC1CCN(CC2CCCCO2)CC1)C(=O)c1cn(C)c(=O)c2[nH]ccc12 (stereo not shown) [Example 235], the IC50 was 9900 nM. Work on CN(CC1CCN(CC2CCOC2)CC1)C(=O)c1cn(C)c(=O)c2[nH]ccc12 (stereo not shown) [Example 236] yielded an IC50 of 14000 nM. C=CCn1cc(C(=O)N(C)C2[C@H]3CN(c4nccc(C(F)(F)F)n4)C[C@@H]23)c2cc[nH]c2c1=O (stereo partly shown) [Example 250] was tested, and the IC50 was 14000 nM. CN(C(=O)c1cn(C)c(=O)c2[nH]ccc12)C1CCN(CCc2ccccc2)CC1 [Example 252, N,6-dimethyl-7-oxo-N-(1-phenethyl-4-piperidyl)-1H-pyrrolo[2,3-c]pyridine-4-carboxamide] gave an IC50 of 5000 nM. CC(CN1CCC(N(C)C(=O)c2cn(C)c(=O)c3[nH]ccc23)CC1)c1ccccc1 (stereo not shown) [Example 255] gave an IC50 of 4800 nM. Molecule “N-cyclopropyl-6-methyl-N-(1-methyl-4-piperidyl)-7-oxo-1H-pyrrolo[2,3-c]pyridine-4-carboxamide [Example 81]” has an IC50 of 710 nM.

— patent US10258603B2 (priority 2014, dated 2019)
